Assay results reported in PubChem BioAssay (NCI).
Where “and” joins values, the source holds several entries; their conditions need not be identical. Equal entries are not always repeated.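 48-hour exposure; five concentrations; linearly interpolated endpoints. The concentration for full growth arrest is given as TGI.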

Experiments:
Experiment in all cases: NCI-60 cell line screen, 48 h
[1] = tested on: CAKI-1 renal
[2] = tested on: DU-145 prostate
[3] = tested on: HCT-15 colon
[4] = tested on: HOP-92 NSCLC
[5] = tested on: IGROV1 ovarian
[6] = tested on: MALME-3M melanoma
[7] = tested on: MOLT-4 leukemia
[8] = tested on: NCI-H522 lung
[9] = tested on: OVCAR-4 ovarian
[10] = tested on: OVCAR-5 ovarian
[11] = tested on: PC-3 prostate
[12] = tested on: RPMI-8226 leukemia
[13] = tested on: RXF 393 renal
[14] = tested on: SF-268 CNS
[15] = tested on: SF-539 CNS
[16] = tested on: SK-MEL-2 melanoma
[17] = tested on: SNB-19 CNS
[18] = tested on: SR leukemia
[19] = tested on: T-47D breast
[20] = tested on: UACC-257 melanoma

COc1ccc(-c2c(C#N)c(N)n(C3OCC(OC(C)=O)C(OC(C)=O)C3OC(C)=O)c(=S)c2C#N)cc1 (stereo not given)
TGI [1]: > 100 µM
TGI [2]: > 100 µM
TGI [3]: > 100 µM
TGI [4]: 88.8 µM and 98.5 µM
TGI [5]: > 100 µM
TGI [6]: > 100 µM
TGI [7]: 51.1 µM and 48 µM
TGI [8]: > 100 µM
TGI [9]: > 100 µM
TGI [10]: > 100 µM
TGI [11]: > 100 µM
TGI [12]: 75.1 µM and 97.5 µM
TGI [13]: > 100 µM and 98.2 µM
TGI [14]: > 100 µM
TGI [15]: > 100 µM
TGI [16]: > 100 µM
TGI [17]: > 100 µM
TGI [18]: 39.5 µM and 54.6 µM
TGI [19]: 81.6 µM and > 100 µM
TGI [20]: > 100 µM

CCOc1cc(NC(C)=O)ccc1C(=O)NN1C(=O)C(Cl)C1c1ccccc1 (stereo not given)
TGI [1]: 30.1 µM
TGI [2]: 32.2 µM
TGI [3]: 45.4 µM
TGI [4]: 31.7 µM
TGI [5]: 18 µM
TGI [6]: 25.2 µM
TGI [7]: 21.3 µM
TGI [8]: 5.82 µM
TGI [9]: 32.7 µM
TGI [10]: 31.4 µM
TGI [11]: 27.8 µM
TGI [12]: 28.7 µM
TGI [13]: 33.5 µM
TGI [14]: 43.8 µM
TGI [15]: 35.4 µM
TGI [16]: 29.9 µM
TGI [17]: 28.4 µM
TGI [18]: 14.3 µM
TGI [19]: 35.4 µM
TGI [20]: 28 µM

O=C1C(Cl)C2(CC(/C=C/c3ccccc3Cl)=NN2c2cccc(S(=O)(=O)O)c2)N1c1nc2ccccc2s1 (stereo not given)
TGI [1]: 38.6 µM
TGI [2]: 87.5 µM
TGI [3]: > 100 µM
TGI [4]: > 100 µM
TGI [5]: > 100 µM
TGI [6]: > 100 µM
TGI [7]: > 100 µM
TGI [8]: 26.9 µM
TGI [9]: > 100 µM
TGI [10]: > 100 µM
TGI [11]: > 100 µM
TGI [12]: 89.9 µM
TGI [13]: > 100 µM
TGI [14]: > 100 µM
TGI [15]: 37.6 µM
TGI [16]: > 100 µM
TGI [17]: > 100 µM
TGI [18]: 25.3 µM
TGI [19]: > 100 µM
TGI [20]: > 100 µM
